From patent publication EP0565593B1, “REDUCING PESTICIDAL INTERACTIONS IN CROPS” (priority 1990, dated 1992)
“And” between values parts separate entries of the source, which are not always exact repeats. Equal entries are not always repeated. Where two headings read alike, the source gives them in different places.

Assays:
Shattercane (SHCA) = format: in vivo
Velvetleaf (VELE) = format: in vivo, Abutilon theophrasti
Giant foxtail (GIFT) = assay: whole plant or invertebrate; format: in vivo; settings: in vivo
Corn [1] = tested on: Corn
Corn [2] = assay: Greenhouse test Procedure VII: biocide and antidote in furrow, herbicide POE (Examples 39-42, 48-50, 56-58; Tables 38-41, 47-49, 55-57); format: in vivo; settings: for % Inhibition Corn: C (COUNTER) + antidote in furrow
Description: This procedure describes interaction among herbicide, biocide and antidote when the biocide and the antidote is applied to a soil furrow containing crop seed before emergence of the crop and the herbicide is applied after emergence of the crop and weeds. The soil and planting depth was described in Procedure IV. The containers for comparison, the biocide and antidote applications to soil furrows were described in Procedure VI. In this procedure, the seed beds of the first, second, third and fourth containers are covered by soil layers not treated with herbicide. The containers were then placed on a bench in a greenhouse and subirrigated as required for the duration of the test. The herbicide, dispersed or dissolved in water containing 0.25% v/v nonionic surfactant (X-77) was applied by a track sprayer (187 L/ha) to the emerged plants of the second, third and fourth containers about five days after planting. All treatments were run in duplicate. Plant response was observed according to Procedure IV. Variations in this procedure will be noted in the examples.
In this example, tests were conducted according to Procedure VII for the POE application of the herbicides following in-furrow application of COUNTER® 15G insecticide (BIOCIDE No. 1) and the antidote on the pre-planted test seeds. In this test, the herbicides were Nos. 1 (MON-12000), 10 (ALLY®) and #4 (HARMONY®) and the Antidote Nos. 1, 7, 12 and 33.
These in-furrow treatments comprised a 50-50 mix of blended granules of COUNTER with and without 5G granular antidotes at 7.4 + 7.4 mg/cm or 1.1 + 0.37 mg active ingredient (a.i.)/cm. The in-furrow initiation of the test was followed five (5) days later with POE application of the herbicides; observations were made eight (8) days later.
In another test, conducted simultaneously with that in Example 39, Herbicide Nos. 5 (chlorimuron ethyl, active ingredient in CLASSIC® herbicide), 7 (nicosulfuron, active ingredient in ACCENT® herbicide) and 15 (tribenuron methyl, active ingredient in EXPRESS® herbicide) were substituted as test herbicides.
In this example, using the same procedure as above, the following imidazolinone herbicides were used with the same insecticide/biocide and antidotes as above: Herb. No. 16 (imazaquin, a.i. in SCEPTER® herbicide; No. 19 (Code No. AC 222293, a.i. in ASSERT® herbicide); No. 6 (imazethapyr, a.i. in PURSUIT® herbicide and No. 18 (imazapyr, a.i. in ARSENAL® herbicide). Test results are shown in Table 40. Table 40
This example describes the testing of the above antidotes used in Examples 39-41 to safen negative synergy interactions between representative species of the class of herbicidal compounds identified as azolopyrimidine sulfonamides and COUNTER 15G. The same procedure used in the above examples was conducted in this test. In this test, the herbicides were formulated in 17% acetone and 83% water with 0.25% v/v X-77 surfactant.
In these tests (according to Procedure VII) the safeners in solution with acetone were applied in furrow to the soil, followed by COUNTER 15G granules at 227 g/305 m (8 oz./1000'). Applications were made in alternate rows in two separate 13.7 cm x 27.7 cm pans containing Dupo silt loam. Pans were seeded 1.3 cm deep, placed on benches in a greenhouse and subirrigated. BEACON was formulated in water with 0.25% v/v X-77 surfactant and applied by track sprayer at a rate of 187 L/Ha (20 gal/A). Weed species in this test were giant foxtail, shattercane and velvetleaf. The herbicide was applied five (5) days after PPI initiation and observation of test result (shown in Table 47) made eight (8) days later.
In Table 47 COUNTER 15G is abbreviated as "C" and the antidotes as "A" in the column headings which indicate the "C + A" ratios used in the tests. Control and COUNTER treatments are average of four (4) replications and COUNTER + Antidote treatments, average of 2 reps. […]

Corn [3] = settings: MON-12000 + OP insecticides; Examples 20-23
[4] = Antidote 4.48 + Biocide No. 1 8.96 Kg/Ha PPI, Herb. No. 8 0.07, 5 DAP, before herbicide application
[5] = Antidote 4.48 + Biocide No. 1 8.96 Kg/Ha PPI, Herb. No. 8 0.07 POE, 13 DAP
[6] = Antidote 4.48 + Biocide No. 1 8.96 Kg/Ha PPI, Herbicide No. 7 0.28 POE, 13 days after planting
[7] = Table 14: Herbicide No. 7 (ACCENT) 0.84 Kg/Ha POE + Biocide No. 2 8.96 Kg/Ha PPI + antidote 4.48 Kg/Ha PPI, 13 days after planting, 8 days after herbicide
[8] = […], 13 days after planting, 8 days after herbicide
[9] = […], observed 10 days after herbicide application
[10] = Herb. […], 5 DAP, before herbicide application
[11] = Antidote 8.96 + Biocide No. 1 8.96 Kg/Ha PPI, Herb. No. 8 0.07, 5 DAP, before herbicide application
[12] = Antidote 8.96 + Biocide No. 1 8.96 Kg/Ha PPI, Herb. No. 8 0.07 POE, 13 DAP
[13] = Antidote 8.96 + Biocide No. 1 8.96 Kg/Ha PPI, Herbicide No. 7 0.28 POE, 13 days after planting
[14] = Table 14: Herbicide No. 7 (ACCENT) 0.84 Kg/Ha POE + Biocide No. 2 8.96 Kg/Ha PPI + antidote 8.96 Kg/Ha PPI, 13 days after planting, 8 days after herbicide

CC1CN(C(=O)C(Cl)Cl)C(C)(C)O1 (stereo not drawn) [compound 8]
% Inhibition 5 DAP SHCA (Shattercane (SHCA); [4]): 0% | % Inhibition 13 DAP SHCA (Shattercane (SHCA); [5]): 90% | % Inhibition SHCA (Shattercane (SHCA); [6]): 60% | % Inhibition SHCA (Shattercane (SHCA); [7]): 85% | % Inhibition SHCA (Shattercane (SHCA); [8]): 90% | % Inhibition SHCA (Shattercane (SHCA); [9]): 60% | % Inhibition 5 DAP SHCA (Shattercane (SHCA); in vivo): 30% | % Inhibition 13 DAP SHCA (Shattercane (SHCA); in vivo): 80% | % Inhibition 5 DAP VELE (Velvetleaf (VELE); [4]): 10% | % Inhibition 13 DAP VELE (Velvetleaf (VELE); [5]): 85% | % Inhibition VELE (Velvetleaf (VELE); [6]): 65% | % Inhibition 5 DAP VELE (Velvetleaf (VELE); [10]): 0% | % Inhibition VELE (Velvetleaf (VELE); [7]): 70% | % Inhibition VELE (Velvetleaf (VELE); [8]): 70% | % Inhibition VELE (Velvetleaf (VELE); [9]): 75% | % Inhibition 5 DAP VELE (Velvetleaf (VELE); in vivo): 0% | % Inhibition 13 DAP VELE (Velvetleaf (VELE); in vivo): 90% | % Inhibition GIFT (Giant foxtail (GIFT)): 45% and 50% and 85% and 65% and 70% and 90% and 60% | % Inhibition 5 DAP Corn (Corn [1]; [4]): 20% | % Inhibition 13 DAP Corn (Corn [1]; [5]): 35% | % Inhibition Corn (Corn [1]; [6]): 35% | % Inhibition 5 DAP Corn (Corn [1]; [10]): 0% | % Inhibition Corn (Corn [1]; [7]): 20% | % Inhibition Corn (Corn [1]; [8]): 20% | % Inhibition Corn (Corn [1]; [9]): 45% | % Inhibition 5 DAP Corn (Corn [1]; in vivo): 20% | % Inhibition 13 DAP Corn (Corn [1]; in vivo): 30% | % Inhibition Corn (Corn [1]; in vivo): 30% and 55% | % Inhibition Corn (Corn [2]; C:A Ratio 20, ACCENT 0.56 Kg/Ha POE): 10% | % Inhibition Corn (Corn [2]; C:A Ratio 20, BEACON 0.28 Kg/Ha POE): 0% | % Inhibition Corn (Corn [2]; C:A Ratio 40, ACCENT 0.56 Kg/Ha POE): 15% | % Inhibition Corn (Corn [2]; C:A Ratio 40, BEACON 0.28 Kg/Ha POE): 0% | % Inhibition Corn (Corn [2]; C:A Ratio 80, ACCENT 0.56 Kg/Ha POE): 20% | % Inhibition Corn (Corn [2]; C:A Ratio 80, BEACON 0.28 Kg/Ha POE): 5% | % Inhibition Corn (Corn [2]; C:A Ratio 160, ACCENT 0.56 Kg/Ha POE): 40% | % Inhibition Corn (Corn [2]; C:A Ratio 160, BEACON 0.28 Kg/Ha POE): 15% | % Corn Inhibition C:A Ratios 5 (Corn [2]; Herbicide No. 8 0.28 Kg/Ha POE + COUNTER 15G 227 g/305 m + antidote in furrow, C:A ratio 5): 3% | % Corn Inhibition C:A Ratios 10 (Corn [2]; Herbicide No. 8 0.28 Kg/Ha POE + COUNTER 15G 227 g/305 m + antidote in furrow, C:A ratio 10): 5% | % Corn Inhibition C:A Ratios 20 (Corn [2]; Herbicide No. 8 0.28 Kg/Ha POE + COUNTER 15G 227 g/305 m + antidote in furrow, C:A ratio 20): 5% | % Corn Inhibition C:A Ratios 40 (Corn [2]; Herbicide No. 8 0.28 Kg/Ha POE + COUNTER 15G 227 g/305 m + antidote in furrow, C:A ratio 40): 3% | % Corn Inhibition C:A Ratios 80 (Corn [2]; Herbicide No. 8 0.28 Kg/Ha POE + COUNTER 15G 227 g/305 m + antidote in furrow, C:A ratio 80): 5% | % Corn Inhibition C:A Ratios 160 (Corn [2]; Herbicide No. 8 0.28 Kg/Ha POE + COUNTER 15G 227 g/305 m + antidote in furrow, C:A ratio 160): 10%

COc1ccc(OC)c(C(=O)CC2OC(=O)c3ccccc32)c1 (stereo not drawn) [compound 77]
% Inhibition 5 DAP SHCA (Shattercane (SHCA); [11]): 10% | % Inhibition 13 DAP SHCA (Shattercane (SHCA); [12]): 85% | % Inhibition SHCA (Shattercane (SHCA); [13]): 70% | % Inhibition SHCA (Shattercane (SHCA); [14]): 85% | % Inhibition SHCA (Shattercane (SHCA); [8]): 95% | % Inhibition SHCA (Shattercane (SHCA); [9]): 60% | % Inhibition 5 DAP SHCA (Shattercane (SHCA); in vivo): 60% | % Inhibition 13 DAP SHCA (Shattercane (SHCA); in vivo): 90% | % Inhibition SHCA (Shattercane (SHCA); in vivo): 85% and 55% and 65% and 45% | safening activity (Corn [3]): low or nil | % Inhibition 5 DAP VELE (Velvetleaf (VELE); [11]): 0% | % Inhibition 13 DAP VELE (Velvetleaf (VELE); [12]): 90% | % Inhibition VELE (Velvetleaf (VELE); [13]): 65% | % Inhibition 5 DAP VELE (Velvetleaf (VELE); [10]): 0% | % Inhibition VELE (Velvetleaf (VELE); [14]): 70% | % Inhibition VELE (Velvetleaf (VELE); [8]): 70% | % Inhibition VELE (Velvetleaf (VELE); [9]): 80% | % Inhibition 5 DAP VELE (Velvetleaf (VELE); in vivo): 20% | % Inhibition 13 DAP VELE (Velvetleaf (VELE); in vivo): 95% | % Inhibition GIFT (Giant foxtail (GIFT)): 60% and 95% and 85% and 80% and 70% | % Inhibition 5 DAP Corn (Corn [1]; [11]): 0% | % Inhibition 13 DAP Corn (Corn [1]; [12]): 75% | % Inhibition Corn (Corn [1]; [13]): 25% | % Inhibition 5 DAP Corn (Corn [1]; [10]): 0% | % Inhibition Corn (Corn [1]; [14]): 25% | % Inhibition Corn (Corn [1]; [8]): 15% | % Inhibition Corn (Corn [1]; [9]): 20% | % Inhibition 5 DAP Corn (Corn [1]; in vivo): 15% | % Inhibition 13 DAP Corn (Corn [1]; in vivo): 65% | activity in reducing corn injury (Corn [1]; primisulfuron POE + biocides PPI, Tables 8-10): either inactive or weakly active
